The source of these data is patent US8765953B2, “Compounds and methods for the treatment of pain and other diseases” (Aquilus Pharmaceuticals, Inc., priority 2008, dated 2014).

The term Ki denotes a measure of affinity in units of concentration, obtained from inhibition or displacement.

One data set concerns humans. The note with it: humans (S-3304: animals or man); cited from earlier work.
Data set [1] concerns spinal nerve ligation (SNL) mouse model. Nature of the data set: Intrathecal (i.t.) SNL-mouse model of neuropathic pain, von Frey mechanical allodynia. The class given is in vivo, FVB male mice. From the text: (§1) To measure the neuropathic pain inhibiting affects of the MMP inhibitors of the present invention, the spinal nerve ligation (SNL) mouse model was run on a select number of compounds. This model which began with the work of Bennet and coworkers (Bennet, G. J. et al. Pain, 33, (1988), 87-107) and was optimized by Kim and Chung (Kim, S. H.; Chung, J. M. Pain, 50, (1992), 355-363) entails first, under magnification, the removal of one-third of the transverse process and then identifying and then dissecting free the L5 spinal nerve from the adjacent L4 spinal nerve in the mouse. The L5 spinal nerve is then tightly ligated using 6.0 silk suture. The nerve injury leads to hyperalgesia which manifests itself by enhanced responses to mechanical, heat and/or cooling stimuli. In this case, mechanical hyperalgesia is tested via Von Frey monofilaments in which filaments of varying thicknesses and bending force are individually applied to the plantar surface of the foot of the mouse. The threshold force necessary for paw withdrawal decreases dramatically after the nerve surgery. Potent pain inhibitors will reverse this affect resulting in greater force needing to be applied to cause the rodent paw to withdrawal.
Following preoperative baseline (Day −2) paw threshold measurement, FVB male mice were subjected to SNL injury (Day −1). The next day (Day 0) after SNL surgery, the animals were tested for post-operative baseline threshold measurements for mechanical allodynia; and the animals were then randomly assigned to one of 3 treatment groups (see Table 9). Over the course of the study, paw withdrawal threshold of these animals was measured in response to mechanical stimulation using the von Frey Monofilament Test.
To avoid systemic effects of the MMP inhibitors, the MMP inhibitors of the present invention were delivered into the cerebral spinal fluid (CSF) space around lumbosacral spinal cord via intrathecal (i.t.) administration, with the idea of targeting MMPs in the DRG, spinal cord, and spinal CSF. Intrathecal MMP inhibitor administration could then target not only spinal cord cells but also DRG cells. Each intrathecal (i.t.) injection was carried out according to the technique of Hylden and Wilcox (Hylden J L, Wilcox G L. Eur. J. Pharmacol., 67, (1980), 313-6) 5.2 mg of each of the MMP inhibitors were first dissolved in 140 microliters of DMSO and then put into 1260 microliters of 0.5% hydroxypropyl cellulose (HPC) in water to make a fine suspension composed of compound in 10% DMSO-0.5% hydroxypropyl cellulose. 10 microliters of the mixture was injected into the intrathecal space of male FVB mice (weighing 22-25 grams each and obtained from the Jackson Laboratories, Bar Harbor, Me.), by lumbar puncture in a volume of 10 μl/mouse using a Hamilton microsyringe via a 30 gauge needle inserted between lumbar vertebrae 5 and 6. In brief, each animal was held firmly by the pelvic girdle in one hand, while the needle was inserted into the tissue on the right side of the L5 or L6 spinous process. The needle was moved forward and slipped into the groove between the spinous process and transverse process and gently moved forward to the intervertebral space at ˜10° angle. As the needle was inserted (˜0.5 cm) within the vertebral column a tail flick was evident, and the solution was then injected.
Tactile Allodynia Test. Mechanical allodynia was measured using the calibrated von Frey filaments (Semmes-Weinstein monofilaments; Stoelting, Wood Dale, Ill., U.S.A.). The plantar surface of the left injured paw of each animal was tested as described by Chaplan et al. (Journal of Neuroscience Methods, 53, (1994), 55-63). The Fifty percent paw withdrawal threshold response was determined by sequentially increasing or decreasing the stimulus strength according to the “up-down method” of Dixon (Annual Review Pharmacology Toxicology, 20, (1980), 441-462). […]

Data set [2] has the same test system. As to the kind of experiment: Intraperitoneal (i.p.) SNL-mouse model of neuropathic pain, von Frey mechanical allodynia. In kind it is in vivo.
Text: as §1
Tactile Allodynia Test. Mechanical allodynia was measured using the calibrated von Frey filaments (Semmes-Weinstein monofilaments; Stoelting, Wood Dale, Ill., U.S.A.). The plantar surface of the left injured paw of each animal was tested as described by Chaplan et al. (Journal of Neuroscience Methods, 53, (1994), 55-63). The Fifty percent paw withdrawal threshold response was determined by sequentially increasing or decreasing the stimulus strength according to the “up-down method” of Dixon (Annual Review Pharmacology Toxicology, 20, (1980), 441-462). For mice, […] von Frey filaments were used, with approximately equal logarithmic incremental bending forces (von Frey number: 1.65, 2.36, 2.44, 2.83, 3.22, 3.61, 3.84, 4.08, and 4.17; equivalent to 0.005, 0.02, 0.03, 0.07, 0.17, 0.41, 0.69, 1.20, and 1.48 g force, respectively).
Prior to testing, each animal was placed in a suspended clear plastic chamber with a wire mesh bottom and acclimated for 15 minutes. Testing was initiated with the 0.07 g (handle marking of 2.83) applied perpendicularly to the plantar surface of the affected hind paw; each filament was applied with enough pressure to cause a buckle effect. The absence of a paw lifting/withdrawal response after 6 s prompted the use of the next higher weight filament. Paw withdrawal, indicating a positive response, prompted the use of a weaker filament. After the initial positive response (i.e., paw withdrawal), the testing continued for four additional measurements, and was used to calculate the response threshold. Four consecutive positive responses received a score of 0.001 g, and five consecutive negative responses (i.e., no paw withdrawal) received a score of 1.5 g.
Analyses for Tactile Allodynia Testing. The 50% paw withdrawal threshold was calculated (PWT; Luo and Calcutt, J. Pharmacology Experimental Therapeutics, 303(3), (2002), 1199-1205; Chaplan et al. Journal of Neuroscience Methods, 53, (1994), 55-63) using the formula: 10(Xf+κδ)/10,000 where Xf is the final von Frey filament used (log units), κ is a value that analyzes the response pattern (taken from the table published by Chaplan et al., 1994), and δ is the mean difference between stimuli (log units).
Except for the mode of administration, number of mice/group and the number of injections and amount of compound per injection, the rest of the study was done in the same manner (in regards to the surgeries and tactile allodynia testing and analysis) as Experiment 110. 3.2 mg of each of the MMP inhibitors #5 and #118 were dissolved in 320 microliters of DMSO. To the solution was then added 32 microliters of Tween 80, followed by 2850 microliters of phosphate buffered saline (PBS). This gave a final concentration of 10% DMSO, 1% Tween and 1 mg/ml compound. […]

The nature of data set [3]: In-vitro mouse microsomal stability. In kind it is in vitro ADME. The conditions noted are these: mouse microsomes, 1 microMolar compound, at T = 60 minutes. How it is done:
Human and mouse microsomal stability was determined for select compounds following the method of Houston (Houston, J. B; Biochem. Pharmacol. 47, (1994),1469).
1 μM concentration of compound and separate human and mouse microsomes (0.3 mg/mL, BD bioscience) were used in the in-vitro assay. To ensure proper energy supply for microsomal degradation of compound, an energy regenerating system comprised of 100 mM potassium phosphate, 2 mM NADPH, 3 mM MgCl2, pH=7.4. and the microsomal protein is added to each sample and the resulting suspension is then incubated in duplicate for 60 min at 37° C. in a rotary shaker. A control is run for each test agent in duplicate omitting NADPH to detect NADPH-free degradation. At T=0 and T=60 min., an aliquot is removed from each experimental and control reaction and then mixed with an equal volume of ice-cold Stop Solution (consisting of 0.3% acetic acid in acetonitrile containing haloperidol and diclofenac as internal standards). Stopped reactions are then incubated for at least ten minutes at −20° C., and an additional volume of water is then added. The samples are then centrifuged to remove precipitated protein, and the supernatants are then analyzed by LC-MS/MS to determine the percentage of compound remaining. The LC-MS/MS system used was an Agilent 6410 mass spectrometer coupled with an Agilent 1200 HPLC and a CTC PAL chilled autosampler, all controlled by MassHunter software (Agilent), or an ABI2000 mass spectrometer coupled with an Agilent 1100 HPLC and a CTC PAL chilled autosampler, all controlled by Analyst software (ABI). After separation on a C18 reverse phase HPLC column (Agilent, Waters, or equivalent) using an acetonitrile-water gradient system, peaks were analyzed by mass spectrometry (MS) using ESI ionization in MRM mode.

For data set [4], the system named is L5 spinal nerve ligation (SNL) neuropathic pain model. The note with it: in vivo; cited from earlier work.
In another data set the test system is mechanical nociception. The note with it: in vivo; cited from earlier work.
The target in another data set is T1, MMP-2 (Homo sapiens, UniProt P08253).
T1 sequence (P08253 110-660): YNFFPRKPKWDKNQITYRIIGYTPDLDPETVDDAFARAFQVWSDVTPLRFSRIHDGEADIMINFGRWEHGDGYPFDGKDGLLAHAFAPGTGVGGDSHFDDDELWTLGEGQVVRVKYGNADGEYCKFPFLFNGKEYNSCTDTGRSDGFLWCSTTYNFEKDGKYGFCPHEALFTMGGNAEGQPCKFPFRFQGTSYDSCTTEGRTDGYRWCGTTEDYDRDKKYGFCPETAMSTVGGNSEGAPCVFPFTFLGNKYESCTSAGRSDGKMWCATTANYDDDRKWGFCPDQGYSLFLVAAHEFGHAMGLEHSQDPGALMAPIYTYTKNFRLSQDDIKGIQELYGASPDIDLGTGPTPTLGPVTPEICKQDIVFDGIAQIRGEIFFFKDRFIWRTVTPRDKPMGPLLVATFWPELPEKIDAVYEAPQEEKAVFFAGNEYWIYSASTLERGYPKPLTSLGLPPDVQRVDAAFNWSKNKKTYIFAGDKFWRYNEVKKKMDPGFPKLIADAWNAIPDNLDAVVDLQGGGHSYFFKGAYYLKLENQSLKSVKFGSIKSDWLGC
The conditions noted are these: cited from earlier work.

A further data set has as its target MMP-8 (Homo sapiens, UniProt P22894). The conditions noted are these: cited from earlier work.
The target of a further data set is MMP-13 (Homo sapiens, UniProt P45452). The conditions noted are these: cited from earlier work.
A further data set has as its system rat formalin test. The note with it: cited from earlier work.
The target of a further data set is MMP-12 (Homo sapiens, UniProt P39900). The note with it: cited from earlier work.
The target of a further data set is T2, MMP-7 (Homo sapiens, UniProt P09237).
T2 sequence (P09237 95-267): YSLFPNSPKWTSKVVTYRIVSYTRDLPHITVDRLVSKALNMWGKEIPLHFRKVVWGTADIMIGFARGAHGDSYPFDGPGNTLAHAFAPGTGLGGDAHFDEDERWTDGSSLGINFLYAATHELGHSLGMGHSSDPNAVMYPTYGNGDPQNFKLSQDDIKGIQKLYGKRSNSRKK
The note with it: cited from earlier work.

A further data set deals with MMP-9 (Homo sapiens, UniProt P14780). The conditions noted are these: cited from earlier work.
A further data set deals with MMP-3 (Homo sapiens, UniProt P08254). The note with it: cited from earlier work.
Setting [5] is: i.p. 100 μl/mouse daily (approx. 3.3 mg/Kg), day 1-5.

Chain of MMP-9 (P14780 94-707, species assumed): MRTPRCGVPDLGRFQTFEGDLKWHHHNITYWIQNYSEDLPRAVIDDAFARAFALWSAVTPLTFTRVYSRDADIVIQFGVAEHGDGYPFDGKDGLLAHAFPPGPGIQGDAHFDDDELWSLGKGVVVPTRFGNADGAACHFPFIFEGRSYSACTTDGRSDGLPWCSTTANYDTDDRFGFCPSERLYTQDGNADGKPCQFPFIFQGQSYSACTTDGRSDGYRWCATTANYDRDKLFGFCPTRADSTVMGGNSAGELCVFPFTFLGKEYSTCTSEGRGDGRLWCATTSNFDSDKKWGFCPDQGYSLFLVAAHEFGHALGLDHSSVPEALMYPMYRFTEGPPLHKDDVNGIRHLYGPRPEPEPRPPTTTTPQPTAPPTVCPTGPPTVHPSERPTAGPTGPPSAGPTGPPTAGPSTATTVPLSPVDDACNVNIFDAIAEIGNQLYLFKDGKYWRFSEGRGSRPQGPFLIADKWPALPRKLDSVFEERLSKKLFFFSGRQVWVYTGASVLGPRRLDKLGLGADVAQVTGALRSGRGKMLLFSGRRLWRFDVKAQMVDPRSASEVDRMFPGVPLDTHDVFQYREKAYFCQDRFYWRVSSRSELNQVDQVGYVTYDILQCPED
Chain of MMP-3 (P08254 100-477, species assumed): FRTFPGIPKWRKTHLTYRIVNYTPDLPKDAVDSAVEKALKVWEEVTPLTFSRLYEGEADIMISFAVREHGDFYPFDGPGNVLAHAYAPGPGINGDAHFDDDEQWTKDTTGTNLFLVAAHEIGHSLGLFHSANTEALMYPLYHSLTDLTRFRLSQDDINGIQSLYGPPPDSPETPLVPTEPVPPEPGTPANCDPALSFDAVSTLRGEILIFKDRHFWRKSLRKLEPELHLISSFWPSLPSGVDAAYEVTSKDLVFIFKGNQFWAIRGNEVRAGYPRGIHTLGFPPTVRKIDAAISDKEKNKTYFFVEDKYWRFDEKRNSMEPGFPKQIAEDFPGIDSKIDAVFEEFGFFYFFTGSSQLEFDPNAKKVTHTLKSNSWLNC
Chain of MMP-8 (P22894 101-467, species assumed): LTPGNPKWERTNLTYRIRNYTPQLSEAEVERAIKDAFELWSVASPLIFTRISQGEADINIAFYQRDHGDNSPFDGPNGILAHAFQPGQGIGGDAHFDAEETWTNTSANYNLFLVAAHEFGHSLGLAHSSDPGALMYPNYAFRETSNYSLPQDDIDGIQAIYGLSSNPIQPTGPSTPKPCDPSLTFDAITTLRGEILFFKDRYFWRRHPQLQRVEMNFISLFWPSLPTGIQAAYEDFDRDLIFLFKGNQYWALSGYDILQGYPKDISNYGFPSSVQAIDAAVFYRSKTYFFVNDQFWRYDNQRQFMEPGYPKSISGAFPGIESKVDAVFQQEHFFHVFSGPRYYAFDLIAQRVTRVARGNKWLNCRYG
Chain of MMP-12 (P39900 106-470, species assumed): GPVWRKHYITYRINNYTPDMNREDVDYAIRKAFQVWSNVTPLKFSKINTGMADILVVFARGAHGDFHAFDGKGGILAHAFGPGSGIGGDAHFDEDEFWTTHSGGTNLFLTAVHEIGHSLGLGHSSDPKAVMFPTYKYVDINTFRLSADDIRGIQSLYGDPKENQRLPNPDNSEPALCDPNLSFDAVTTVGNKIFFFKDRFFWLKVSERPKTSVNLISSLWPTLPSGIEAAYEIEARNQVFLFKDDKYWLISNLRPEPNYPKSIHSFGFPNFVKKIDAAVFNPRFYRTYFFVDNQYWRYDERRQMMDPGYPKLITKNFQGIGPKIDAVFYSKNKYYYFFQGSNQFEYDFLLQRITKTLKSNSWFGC

Consider `CNC(=O)[C@@H](NC(=O)[C@H](CC(C)C)[C@H](O)C(=O)NO)C(C)(C)C` [Marimastat], for which the Musculoskeletal toxicities entry in the data set with humans was “time-dependent and dose-dependent musculoskeletal toxicities (arthralgia, myalgia, tendinitis)”.
For `[2H]C([2H])([2H])c1ccc(C#Cc2ccc(S(=O)(=O)N[C@H](Cc3c[nH]c4ccccc34)C(=O)O)s2)cc1` [Compound 118, (R)-3-(1H-Indol-3-yl)-2-[5-(4-trideuteromethyl-phenylethynyl)-thiophene-2-sulfonylamino]-propionic acid-(D3, 98%)], in data set [1] (i.t. 10 μl/mouse daily day 1-6), the “Paw withdrawal threshold, mean, Day 5” value worked out at 0.320 grams and the “Paw withdrawal threshold, mean, Day 7” value is 1.024 grams. Also, the “Paw withdrawal threshold, mean, Day 1” value in [1] (i.t. 10 μl/mouse daily day 1-6, testing 2 hr after first i.t. injection) worked out at 0.321 grams. In addition, in [1] (i.t. administration, as compared to vehicle and compound #5), the “Reversal of allodynia” value is listed as “almost complete reversal of allodynia”. Besides, the “Paw withdrawal threshold, mean, Day 0 Postoperative Baseline” value in data set [1] (i.t. study, post operative injury baseline, before treatment) is listed as 0.077 grams. The “Paw withdrawal threshold, mean, Day(-2) Pre-operative Baseline” value in data set [1] (i.t. study, testing prior to SNL injury, before treatment) was 1.268 grams. Further, in [2] (setting [5]), the “Paw withdrawal threshold, mean, Day 1” value turned out to be 0.170 grams; the “Paw withdrawal threshold, mean, Day 2” value is recorded as 0.350 grams; the “Paw withdrawal threshold, mean, Day 5” value is recorded as 1.470 grams; the “Paw withdrawal threshold, mean, Day 6” value was found to be 0.867 grams. Further, the “Paw withdrawal threshold, mean, Day 7” value in data set [2] (setting [5]) came to 0.250 grams. The “Reversal of mechanical allodynia” value in data set [2] (i.p. administration, by day 5) was “complete reversal of mechanical alodynia”. Besides, the “Paw withdrawal threshold, mean, Day 0 Postoperative Baseline” value in [2] (i.p. study, baseline before treatment) is on record as 0.096 grams. For the same molecule, in data set [3] (with NADPH), the “% Mean Remaining Parent with NADPH (%)” value was 85%. Further, the “% Mean Remaining Parent without NADPH (%)” value in data set [3] (without NADPH (control)) is given as 91%.
On to “TIMP-1: endogenous matrix metalloproteinase inhibitor”, for which the “Effect on neuropathic pain in the SNL model” value in data set [4] is on record as “suppressed neuropathic pain”.
As to `CNC(=O)[C@H](Cc1c[nH]c2ccccc12)NC(=O)[C@@H](CC(=O)NO)CC(C)C` [GM6001], the “Effect on mechanical nociception” value with mechanical nociception is recorded as “attenuate mechanical nociception”.
Consider `CCOCOC[C@H](C[C@H](C)C(=O)NO)NC(=O)c1ccc(Oc2ccccc2)cc1` [ONO-4817], for which the Ki is 0.73 nM on MMP-2; 1.1 nM on MMP-8; 1.1 nM on MMP-13; 0.45 nM at MMP-12; 2500 nM at MMP-7; 2.1 nM at MMP-9. At MMP-3, the Ki is 42 nM. Further, in the data set on rat formalin test (MMP-2 injected intrathecally), the “Effect on the analgesic effect of intrathecal MMP-2 (Phase I agitation behavior)” value was “antagonized”. The “Effect on the rat formalin test when given alone” value in the data set with rat formalin test (inhibitor given alone) is “no affect”.
